Test [1] can be described thus: inhibitors of intracellular T. cruzi replication, confirmation, NIH3T3 host cells, beta-gal luminescence (AID 2044).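 Also: intracellular parasites grown in NIH/3T3 mouse fibroblasts as host cells; luminescent beta-galactosidase reporter signal from transgenic T. cruzi replicating inside host cells; inhibitors lower the luminescence signal.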 The format is functional, cell-based.
The nature of test [2]: cytotoxicity toward NIH3T3 fibroblasts, dose response, counter-screen, cell-based, ATP luminescence, mouse fibroblasts (AID 2010).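 Also: cells exposed to compound for about 90 hours before reading.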 It counts as functional. (The purpose of a counterscreen is to sort out artefacts and off-target activity.)
Test [3] has as its system Escherichia coli. The experiment in a line: microbe, parasite or virus in culture.
The subject of test [4] is Escherichia coli. The experiment in a line: microbe, parasite or virus in culture. This is another data set of the same source.
The target in test [5] is T1, Ubiquitin-conjugating enzyme E2 N (Homo sapiens, UniProt P61088).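 Also: Dose-response confirmation in a TR-FRET assay detecting UBC13-driven polyubiquitin chain formation, inhibition measured.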
T1 sequence (P61088 whole entry): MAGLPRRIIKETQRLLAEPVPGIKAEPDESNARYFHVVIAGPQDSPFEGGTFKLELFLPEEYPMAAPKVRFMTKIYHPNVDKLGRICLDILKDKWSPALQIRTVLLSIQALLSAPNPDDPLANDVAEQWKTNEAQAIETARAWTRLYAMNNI
It counts as functional.

Test [6] has as its target T2, Microphthalmia-associated transcription factor (Homo sapiens, UniProt O75030).
T2 sequence (O75030 whole entry): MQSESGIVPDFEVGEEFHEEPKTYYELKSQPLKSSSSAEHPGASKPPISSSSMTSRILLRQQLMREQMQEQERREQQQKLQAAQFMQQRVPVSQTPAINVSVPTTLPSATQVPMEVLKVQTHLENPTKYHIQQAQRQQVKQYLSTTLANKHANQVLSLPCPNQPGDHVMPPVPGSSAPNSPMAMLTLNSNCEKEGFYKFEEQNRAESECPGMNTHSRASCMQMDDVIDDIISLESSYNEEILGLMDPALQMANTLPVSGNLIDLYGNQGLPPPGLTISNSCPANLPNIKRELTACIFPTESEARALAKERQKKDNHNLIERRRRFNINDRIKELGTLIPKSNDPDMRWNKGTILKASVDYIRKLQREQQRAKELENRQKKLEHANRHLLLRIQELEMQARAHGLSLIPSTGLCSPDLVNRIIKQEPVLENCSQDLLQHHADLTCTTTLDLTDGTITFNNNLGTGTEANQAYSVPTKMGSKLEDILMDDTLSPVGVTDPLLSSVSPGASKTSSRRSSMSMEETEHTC
Nature of the test: TRPM1 promoter luciferase signal decrease, dose response, MITF inhibitor project, cell-based, SK-MEL-5, cherry-picked, set 3 (AID 493073).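 Also: SK-MEL-5 melanoma cells with luciferase driven by the MITF target TRPM1 promoter.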 It counts as functional.

The subject of test [7] is A-375. Nature of the test: A375 melanoma cell viability reduction, dose response, counter-screen for MITF modulator project, cherry-pick samples, set 2 (AID 540335). It counts as functional, cell-based. The conditions noted are these: Homo sapiens.
A short description of test [8]: cytotoxicity in HEK-293T cells, dose response, cytotoxicity control for BCR NF-kB inhibitor project, luminescence, B-cell screen hits (AID 489021).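 Also: HEK-293T cells carrying an NF-kB luciferase reporter; cells exposed to compound for about 14 hours before viability readout.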 The format is functional, cell-based.
In a further test the target is Cytochrome P450 2C19 (Homo sapiens, UniProt P33261). The experiment in a line: Cytochrome panel assay with activity outcomes. Panel member name: p450-cyp2c19 Compounds with AC50 equal or less than 10 uM are considered active. It counts as functional. The conditions noted are these: read-out: AC50.
In test [9] the test system is HEK293. Nature of the test: cytotoxicity in HEK293T NF-kB-Luc cells, SAR follow-up, cytotoxicity control for NF-kB activator project, cell-based, resazurin fluorescence (AID 493251). It counts as functional. The conditions noted are these: Homo sapiens.
The test system of the next test is Jurkat. The experiment in a line: SAR Analysis of small molecule inhibitors of T-cell specific antigen receptor-induced NF-kB activation in a Jurkat cell line using a luminescence assay - Set 2. [Related pubchem assays (depositor defined):AID435003, AID435012, AID465]. The format is functional, cell-based. The conditions noted are these: Homo sapiens.
In test [10] the test system is HEK293. Nature of the test: SAR Analysis of small molecule inhibitors of T-cell specific antigen receptor-induced NF-kB activation in a HEK-293T cell line using a luminescence assay - Set 2. [Related pubchem assays (depositor defined):AID435003, AID435012, AID489026]. The format is functional, cell-based. As to conditions: Homo sapiens.
Test [11] deals with T3, RNA-binding protein pos-1 (Caenorhabditis elegans, UniProt G5EF15).
T3 sequence (G5EF15 whole entry): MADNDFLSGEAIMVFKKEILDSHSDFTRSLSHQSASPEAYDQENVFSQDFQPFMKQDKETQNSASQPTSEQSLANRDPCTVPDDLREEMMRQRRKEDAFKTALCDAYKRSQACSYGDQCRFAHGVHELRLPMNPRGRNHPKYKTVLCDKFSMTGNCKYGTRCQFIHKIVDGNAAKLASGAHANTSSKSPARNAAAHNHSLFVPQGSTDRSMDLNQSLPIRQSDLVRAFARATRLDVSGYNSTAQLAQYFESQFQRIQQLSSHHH
Nature of the test: inhibitors of POS-1/mex-3 RNA binding, dose response, biochemical, fluorescence polarization (AID 1964).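 Also: purified POS-1 fused to maltose binding protein made in E. coli; potency of compounds blocking POS-1 binding to fluorescent RNA.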 On the technique in general: In fluorescence polarisation assays a small probe gives low polarisation when free and higher when bound to something large.

Test [12] addresses T4, Zinc finger protein mex-5 (Caenorhabditis elegans, UniProt Q9XUB2).
T4 sequence (Q9XUB2 whole entry): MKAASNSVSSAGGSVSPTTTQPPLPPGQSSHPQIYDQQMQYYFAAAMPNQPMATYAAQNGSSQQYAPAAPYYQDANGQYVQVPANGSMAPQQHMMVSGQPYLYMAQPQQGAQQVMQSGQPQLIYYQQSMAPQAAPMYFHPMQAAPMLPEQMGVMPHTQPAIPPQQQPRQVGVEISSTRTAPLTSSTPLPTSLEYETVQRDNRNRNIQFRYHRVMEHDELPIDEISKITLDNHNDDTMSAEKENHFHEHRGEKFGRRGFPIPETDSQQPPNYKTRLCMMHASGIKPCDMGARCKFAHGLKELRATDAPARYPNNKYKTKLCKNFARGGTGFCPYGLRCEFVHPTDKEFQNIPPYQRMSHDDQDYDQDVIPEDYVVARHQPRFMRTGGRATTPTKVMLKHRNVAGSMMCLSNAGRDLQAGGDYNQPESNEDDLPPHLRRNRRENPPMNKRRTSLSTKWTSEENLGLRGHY
The experiment in a line: MEX-5/TCR-2 RNA interaction inhibitors, dose response, biochemical, C. elegans, fluorescence polarization (AID 1960).

Test [13] can be described thus: growth suppression of PTEN-null colon cells, dose response, cell-based, HCT116 PTEN knockout (AID 1047).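 Also: HCT116 colon tumor cells with PTEN knocked out; cells exposed to compound for 60 hours before readout; potency for loss of cell viability measured by luminescence.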 It counts as functional.
Test [14] can be described thus: growth suppression of beta-catenin-knockout colon cells, dose response, cell-based, HCT116, human colon tumor (AID 1045).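 Also: HCT116 colon tumor cells with beta catenin knocked out; cells exposed to compound for 60 hours.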 It counts as functional.
For the next test, the target named is X-box-binding protein 1 (Homo sapiens, UniProt P17861). The format is functional, Cricetulus griseus.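 Also: confirmatory dose-response counter-screen serving a CHOP assay.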
The target of test [15] is T5, Endoribonuclease toxin MazF (Escherichia coli K-12, UniProt P0AE70).
T5 sequence (P0AE70 whole entry): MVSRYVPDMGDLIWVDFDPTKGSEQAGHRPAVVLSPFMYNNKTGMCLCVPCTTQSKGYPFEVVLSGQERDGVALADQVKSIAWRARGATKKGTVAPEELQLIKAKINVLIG
Nature of the test: MazF toxin RNase activators, dose response, biochemical, fluorescence, single-stranded RNA substrate, uHTS hits (AID 588481). It counts as functional.

The test system of test [16] is A-375. Nature of the test: MITF: Counter assay: A375 proliferation Measured in Cell-Based System Using Plate Reader - 2084-03_Inhibitor_Dose_DryPowder_Activity. [Related pubchem assays (depositor defined):AID488944]. It counts as functional. The conditions noted are these: Homo sapiens.
Test [17] has as its target T5, Endoribonuclease toxin MazF. Nature of the test: fluorescent RNA oligo signal without MazF, dose response, counter-screen for MazEF activator project, biochemical, fluorescence, single-stranded RNase substrate (AID 588502). It counts as functional.

Calls of active or inactive are those of the source.

Cytochrome P450 2C19, sequence (P33261 whole entry): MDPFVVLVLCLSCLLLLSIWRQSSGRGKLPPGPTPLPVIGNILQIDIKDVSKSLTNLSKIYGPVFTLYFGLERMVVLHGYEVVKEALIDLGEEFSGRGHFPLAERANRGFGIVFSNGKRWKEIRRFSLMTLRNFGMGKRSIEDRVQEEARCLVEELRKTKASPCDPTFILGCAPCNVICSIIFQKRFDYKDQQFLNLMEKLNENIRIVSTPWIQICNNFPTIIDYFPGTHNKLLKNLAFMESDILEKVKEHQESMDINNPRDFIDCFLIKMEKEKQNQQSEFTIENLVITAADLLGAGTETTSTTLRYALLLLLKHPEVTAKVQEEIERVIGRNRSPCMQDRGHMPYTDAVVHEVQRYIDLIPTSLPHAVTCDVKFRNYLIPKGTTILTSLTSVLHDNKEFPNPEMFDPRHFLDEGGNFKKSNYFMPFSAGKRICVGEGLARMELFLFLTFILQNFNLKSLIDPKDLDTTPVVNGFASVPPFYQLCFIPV
X-box-binding protein 1, sequence (P17861 whole entry): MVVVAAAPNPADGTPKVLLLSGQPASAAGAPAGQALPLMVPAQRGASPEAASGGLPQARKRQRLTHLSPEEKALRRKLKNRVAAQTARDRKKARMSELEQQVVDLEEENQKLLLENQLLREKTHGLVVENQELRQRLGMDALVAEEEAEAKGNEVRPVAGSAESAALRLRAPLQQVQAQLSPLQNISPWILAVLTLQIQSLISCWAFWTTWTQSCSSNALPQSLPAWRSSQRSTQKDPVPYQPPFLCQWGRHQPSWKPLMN

With `N#C/C(=C\c1ccc(N2CCCCC2)c([N+](=O)[O-])c1)c1nn(-c2ccccc2)c(N)c1C#N`, the 50% effective concentration (EC50) (in general, the concentration giving half of the maximal effect) in test [1] was 1.81 µM (active); in test [2], > 30 µM (not active). Also, the AC50 (as a rule, the midpoint of the concentration-response curve, whichever way the signal moves) in the test with Escherichia coli [3] was 26.2 µM (active); with Escherichia coli [4] it was > 380 µM (inactive).

`Cc1cccc(/C=C2/Sc3ccc(C(=O)NCCN4CCCC4)cc3NC2=O)c1`: the IC50 (usually the concentration that gives 50% inhibition) in [5] was > 20 µM (inactive). Besides, the AC50 in [6] was 18.4 µM (active); in the test on A-375 [7] it was 21.1 µM (active).

On to `CN(C)C(=O)CCc1nc(-c2ccc(C(C)(C)C)cc2)no1`, for which the IC50 in test [8] was > 80 µM (inactive); with HEK293 [9] it was > 80 µM (inactive); in the test on Jurkat, > 79 µM (inactive); with HEK293 [10], 48.5 µM (inactive). Further, at Cytochrome P450 2C19, the half-maximal activity concentration (AC50) was 22.4 µM (inconclusive).

In the case of `Br.N=c1n(CC(=O)c2ccc([N+](=O)[O-])cc2)c2ccccc2n1Cc1ccc(Cl)cc1`, the EC50 in test [11] was 125 µM (active); in test [12], > 300 µM (not active); in [13], 5.38 µM (active); in [14] it was 5.28 µM (active); in test [15], > 99 µM (inactive); in test [17], 1.93 µM (active). The “Absolute IC50 (XBP1)” value on X-box-binding protein 1 was determined as 10 µM. For the same compound, in the test with A-375 [16], the AC50 is 22.2 µM (active).
